Columns and labels:
[1] = tested on: MPTP-induced in vivo PD model; assay: Rotarod test; design: species or system mice (C57BL/6j); conditions: MPTP 30 mg/kg i.p. mice; for behavioral performance in rotarod test (latency to fall): 2 hours and 24 hours after last MPTP
Method: In this study, all animal management and experimental protocols were performed in compliance with guidelines of the Institutional Animal Care and Use Committee of the Korea Institute of Science and Technology. 40 mice (C57BL/6j, male, 8 weeks old) were purchased from SLC Inc. (Shizuoka, Japan). After arrival, every four mice were hosed in each cage (30 cm×18.5 cm×13 cm) and allowed free access to feed and water. All mice were housed under the following constant conditions: lights on from 6:00 to 18:00, a temperature of 23° C.±1° C., and a humidity of 50%±10%. After 7 days of a habituation period, the mice were used in the experiments according to standard protocols. 40 mice were classified into five groups such that eight mice belonged to each group. After the habituation period, all mice were orally administered with a drug every day. […] Each mouse was administered with a single dose of saline/MPTP injection every day for 8 days. At 7 days after the final MPTP injection, all mice were sacrificed by cervical dislocation, and then the whole brain, SNpc, and striatum (ST) were excised for biochemical analysis. […] A rotarod test was performed according to a known method with minimal modification (Borlongan C. V. et al., Pharmacology Biochemistry and Behavior. 1995, 52:225; Hu X. et al., Neuropharmacology, 2017, 117:352). Briefly, the test consisted of a pretraining section and a test section. The pretraining section was performed for consecutive 4 days. The mice were positioned in a cylinder of a rotarod apparatus such that tails of all mice faced an operator and trained for 300 seconds at a constant speed of 16 rpm. During the 300 seconds, mice falling to the floor were placed back on the cylinder by the operator. All mice were trained three times in total every day at an interval of about 30 minutes before administration of MPTP. […] Latency to fall off the rotarod was recorded for each mouse. […] Latency to fall off the rotarod was measured for each mouse. […] An average time of three tests was calculated to evaluate balance, grip strength, and motor coordination.

[2] = molecular target: T1, MAO-B (Mus musculus, UniProt Q8BW75); assay: Determination of MAO-B activity of ST and SN; assay type: in vivo, mice (C57BL/6j); conditions: both ST and SN; MPTP 30 mg/kg mice; 5 mg/kg and 15 mg/kg p.o.
T1 construct: a MAO-B substrate was added to a MAO-B enzyme-containing substance (ST and SN samples); from tissue; host or cells: mouse brain: striatum (ST) and substantia nigra (SN/SNpc) homogenate supernatant
T1 sequence (Q8BW75 1-520): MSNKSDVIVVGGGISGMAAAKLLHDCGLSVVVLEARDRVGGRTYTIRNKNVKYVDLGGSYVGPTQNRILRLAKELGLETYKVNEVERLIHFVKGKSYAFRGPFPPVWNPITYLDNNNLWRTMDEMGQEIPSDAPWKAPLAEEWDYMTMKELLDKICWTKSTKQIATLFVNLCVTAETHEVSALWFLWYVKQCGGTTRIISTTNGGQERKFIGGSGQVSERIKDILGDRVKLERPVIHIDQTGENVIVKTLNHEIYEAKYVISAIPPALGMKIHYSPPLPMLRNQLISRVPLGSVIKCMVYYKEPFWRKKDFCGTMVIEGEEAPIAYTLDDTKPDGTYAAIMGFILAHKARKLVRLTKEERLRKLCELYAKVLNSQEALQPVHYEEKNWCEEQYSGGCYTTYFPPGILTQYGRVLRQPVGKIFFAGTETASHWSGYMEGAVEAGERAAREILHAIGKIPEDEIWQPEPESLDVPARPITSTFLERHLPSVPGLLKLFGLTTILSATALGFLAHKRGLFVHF
Method: 40 mice were classified into five groups such that eight mice belonged to each group. After the habituation period, all mice were orally administered with a drug every day. While the mice of Groups 1 and 2 were administered with saline (p.o.), the mice of Groups 3, 4, and 5 were administered with 5 mg/kg ropinirole (p.o.), 5 mg/kg AKNS-2 (p.o.), and 15 mg/kg AKNS-2 (p.o.), respectively. From the 5th day therefrom, the mice of Group 1 were intraperitoneally administered with a saline at 1 hour after gavage feeding of saline, and the mice of Groups 2, 3, 4, and 5 were administered with 30 mg/kg MPTP (i.p.) at 1 hour after gavage feeding of saline, ropinirole, AKNS-2 (5 mg/kg), and AKNS-2 (15 mg/kg), respectively. […]
On the 7th day after the last administration of MPTP, SNpc and ST of each mouse were carefully excised and stored at −80° C. until use. […] A concentration of proteins contained in the supernatant was measured by the Bradford method. […]
A MAO-B assay kit of Promega Corporation (Woods Hollow Road, Madison, Wis., USA) was used to determine MAO-B activity of ST and SN according to the manufacturer's instructions. […] Luminescence signals were measured using an Infinite M1000 multimode microplate reader (TECAN, Männedorf, Switzerland). MAO-B activity was expressed as relative light unit (RLU)/mg protein).

Row | SMILES | behavioral performance in rotarod test (latency to fall) ([1]; 5 mg/kg p.o.) | behavior performance in rotarod test (latency to fall) ([1]; 5 mg/kg p.o., at 24 hours) | behavioral performance in rotarod test (latency to fall) ([1]; 15 mg/kg p.o.) | activity of MAO-B increased by MPTP [2]
1 | CCCN(CCC)CCc1cccc2c1CC(=O)N2 [ropinirole, reference compound] | the impairment was reversed |  |  | 
2 | C[C@@H]1O[C@@H](O[C@@H]2[C@@H](O)[C@H](O[C@@H]3[C@@H](O[C@@H]4OC[C@@H](O)[C@H](O)[C@H]4O)[C@@H](O)[C@H](O[C@H]4[C@H](OC(=O)[C@]56CCC(C)(C)C[C@H]5C5=CC[C@@H]7[C@@]8(C)C[C@H](O)[C@H](O[C@@H]9O[C@H](CO)[C@@H](O)[C@H](O[C@@H]%10OC[C@@H](O)[C@H](O)[C@H]%10O)[C@H]9O)[C@@](C)(CO)[C@@H]8CC[C@@]7(C)[C@]5(C)C[C@H]6O)OC[C@H](O)[C@@H]4O)O[C@H]3C)OC[C@H]2O)[C@H](O)[C@H](O)[C@H]1O [Compound 1, 3-O-β-D-xylopyranosyl-(1→3)-β-D-glucopyranosylpolygalacic acid 28-O-α-L-rhamnopyranosyl-(1→3)-β-D-xylopyranosyl-(1→4)-[β-D-xylopyranosyl-(1→3)]-α-L-rhamnopyranosyl-(1→2)-α-L-arabinopyranosyl ester] |  | significantly improved MPTP-impaired behavior performance | the impairment was reversed | could not reduce the activity of MAO-B

From patent publication US12234257B2, “Triterpene saponin derivative and use thereof” (KOREA INSTITUTE OF SCIENCE AND TECHNOLOGY, priority 2020, dated 2025)
